Data reported in PMC3139435 (Bioorganic & medicinal chemistry letters, 2011).
Where two headings read alike, the source gives them in different places.

Assays:
[1] = test system: MIF-dependent ERK1/2 phosphorylation; details: synovial fibroblasts; for effect on MIF-enhanced ERK phosphorylation (in words): co-administration with MIF, Figure 2
[2] = molecular target: T1, human MIF (Homo sapiens, UniProt P14174); details: cited from earlier work
T1 sequence (P14174 2-115 limits assumed): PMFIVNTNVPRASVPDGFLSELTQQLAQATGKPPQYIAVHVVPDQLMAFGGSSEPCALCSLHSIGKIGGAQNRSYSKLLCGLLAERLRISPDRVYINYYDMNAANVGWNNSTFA

[3] = molecular target: T1, human MIF; assay: Mass spectrometric; details: 30 µM each of MIF and compound, one hour at 25 °C

## O=c1c2ccc(O)cc2sn1-c1ccc(Cl)cc1 [1w]
[1]; at 100 nM, added with MIF for 30 minutes
  reduction of ERK phosphorylation: 20%
[1]; at 1 µM, added with MIF for 30 minutes
  reduction of ERK phosphorylation: 35%
[1]
  effect on MIF-enhanced ERK phosphorylation (in words): substantial reduction of phosphorylation

## COC(=O)CC1CC(c2ccc(O)cc2)=NO1 (stereo not shown) [ISO-1, reference compound]
[1]; at 2 µM, racemate
  reduction of ERK phosphorylation: 19%

## Ic1cc(-c2ccccc2)ncn1 [4-IPP, 4-iodo-6-phenylpyrimidine]
[2]
  fraction of the protein (MIF) covalently modified: ca. 20%

## N#Cc1ccc(-n2sc3cc(F)ccc3c2=O)cc1 [1c]
[1]
  effect on MIF-enhanced ERK phosphorylation (in words): substantial reduction of phosphorylation

## O=c1c2ccc(F)cc2sn1-c1ccc(Cl)cc1 [1a, 2-(4-chlorophenyl)-6-fluoro-benzo[d]isothiazol-3(2H)-one]
[3]
  fraction of MIF covalently modified: ca. 3%
